What was measured:
[1] = system: IGF2; assay: NE-mediated IGF2 secretion in lung epithelial cells; type: cell-based, human
Method: ELISA for IGF1, IGF2 and NE were performed using commercially available ELISA kits (R&D Systems, DSL or Abnova) according to the manufacturer's instruction.

[2] = system: lung epithelial cells; assay: Transformation of lung epithelial cells by stress hormones; type: cell-based, human; settings: treatment with the stress hormone alone
Method: Cells (2-3×10^3 cells) were seeded into 96-well plates, treated with a test drug diluted with a medium, and then incubated for 3 days. After incubation, the cells were treated with an MTT solution to have a final concentration of 200-500 μg/ml and incubated for 2 to 4 hours. After discarding the medium, produced formazan was dissolved in DMSO, and then the absorbance at 570 nm was measured. Alternatively, cells were seeded into 12- or 24-well plates, collected after a predetermined time after treatment with a test drug, and then counted using a hemocytometer. 100 to 300 cells were seeded into 6- or 12-well plates and then treated with NNK or NNK and a test drug for 2 to 3 weeks. After 2 to 3 weeks, Colony formation was observed and the colonies were counted after stained staining with crystal violet. Before the experiment, low-melting agar (final concentration of agar: 1%) was diluted with a medium, and then 1 ml of the resulting solution was added and solidified in each 24-well plate, resulting in bottom agar. 2,000 to 5,000 cells were mixed with the low melting agar (final concentration of agar: 0.35-0.4%), 500 μl of the resulting mixture was added onto each bottom agar. After solidification of the agar, the cells were treated with NNK or a test drug, which was diluted with a medium. After 2 to 4 weeks after treatment, colonies were stained with an MTT solution, observed, and then counted. Lung epithelial cells at 90 to 95% confluency were treated with a carcinogen diluted with a growth factor-free medium, or a carcinogen and a test drug. After 2 to 3 weeks, foci formation was observed.

[3] = system: mice; assay: NE (stress hormone) lung carcinogenesis model with urethane; type: in vivo, mouse; settings: continuous NE exposure by micro-osmotic pump, 12 weeks, urethane 1 g/kg
Method: To identify the carcinogenesis promotion by a stress hormone NE, NE (50.1 mM) or vehicle PBS was injected into micro-osmotic pumps (Alzet), and then the pumps were implanted into the backs of mice. Six weeks later, the existing pumps were removed, NE or PBS-injected new pumps were implanted into the mice, and then the mice were continuously exposed (daily exposure at a dose of 1 μmol per 100 g mouse) to NE for a total of 12 weeks. To stimulate tumorigenesis, three days after the pump implantation, urethane was administered at a dose of 1 g/kg.
For non-invasive observation of tumors before autopsy, MMPSense 680 probes were injected, and images were obtained using IVIS Spectrum microCT (PerkinElmer). After autopsy of the mice, lungs were extracted, and produced tumors were counted and embedded in paraffin to form paraffin blocks. Four or more tissue sections were prepared at regular intervals and stained by H&E staining, and then numbers and sizes of the tumors were measured to calculate volumes of the tumors. The tumor volume was calculated according to (minor axis)^2×major axis×0.5.

[4] = system: IGF-1R; assay: NE-mediated IGF-1R activation in lung epithelial cells; type: cell-based, human
Method: (§1) Cells were washed twice with ice-cold PBS, and then lysed with a modified RIPA buffer [50 mM Tris-HCl (pH 7.4), 150 mM NaCl, 1 mM EDTA, 0.25% sodium deoxycholate, 1% Triton X-100, a protease inhibitor cocktail, 100 mM NaF, 1 mM Na3VO4]. Lysates were centrifuged at 13,000 rpm for 15 to 20 minutes to harvest supernatants, and then the collected proteins were quantified using the BCA method. Equivalent amounts of the proteins were subjected to electrophoresis using 8-15% SDS-PAGE, and then transferred to a PVDF membrane. The membrane was washed with TBST (0.01% Tween-20-containing Tris-buffered saline), and blocked in a blocking buffer (diluted in TBST to contain 5% skim milk) at room temperature for 1 hour. The membrane was incubated with primary antibodies diluted in 3% BSA-containing TBST at 4° C. for 12 hours, and washed with TBST for over 1 hour. The membrane was incubated with secondary antibodies diluted in TBST containing 3% skim milk at room temperature for 1 to 2 hours, and washed with TBST for over 1 hour. The membrane was reacted in an ECL solution, and band visualization was carried out by exposure to an X-ray film.

[5] = system: intracellular Ca^2+; assay: Intracellular Ca2+ production (Fluo-4 AM); type: cell-based, human; settings: NNK treatment
Method: Lung epithelial cells were placed on coverslips, treated with an antihypertensive drug or a Ca^2+ chelator, treated with Ca^2+ indicator Fluo-4 AM at 37° C. for 15 minutes, and then treated with NE for 5 minutes. The cells were washed with PBS three times. The slides were mounted with a mounting medium, and images were captured using a Nuance multispectral imaging system (PerkinElmer).
For real-time monitoring of a Ca^2+ change in cells by NNK, the cells were seeded into 96-well cell carrier microplates (PerkinElmer), treated with an antihypertensive drug, treated with Fluo-4 AM at 37° C. for 15 minutes, and then treated with NNK. Fluorescence changes were monitored using an Operetta high content screening system, and result analysis was performed using Harmony software (PerkinElmer).

[6] = system: IGF2; assay: IGF2 secretion in GFP-IGF2-overexpressing BEAS-2B cells; type: cell-based, human; settings: GFP-IGF2-overexpressing BEAS-2B, NNK treatment
[7] = system: IGF-1R; assay: NNK-induced IGF-1R activation in lung epithelial / lung cancer cells (Western blot); type: cell-based, human
Method: as §1

[8] = system: IGF2; assay: IGF1 and IGF2 generation in lung epithelial cells (RT-PCR); type: cell-based, human; settings: NNK 1 or 10 μM
Method: RNA was isolated from lung epithelial cells by the following method. By adding TRIzol Reagent, the cells were homogenized, treated with chloroform and then centrifuged at 13,000 rpm for 20 minutes. After collection of supernatants, equivalent amounts of isopropanol were added, and then the resulting mixture was centrifuged at 13,000 rpm for 20 minutes to precipitate RNA. The precipitated RNA was washed with 75% ethanol, dried and then dissolved in nuclease-free water. The absorbance at 260 nm was measured, and then the RNA was quantified. RNA having a ratio of A260/A280 nm of 1.8 to 2.0 was used in the experiments. All of the experiments were carried out under RNase-free conditions.
cDNA was synthesized using the PrimeScript™ 1st strand cDNA Synthesis Kit by reacting 2 μg of total RNA with Oligo dT primer (50 μM), a dNTP mixture, and RNase-free dH2O at 65° C. for 5 minutes, reacting a Template RNA primer mixture with 5× PrimeScript Buffer, an RNase inhibitor, PrimeScript RTase, and RNase-free dH2O at 42° C. for 1 hour, and performing heating at 95° C. for 5 minutes to stop the reaction.
After a reaction solution was adjusted to a final volume of 20 μl by adding 2 μl cDNA, 4 μM primer sets, 10 μl EconoTaq® polymerase, and distilled water, polymerase chain reaction (PCR) was carried out using a PCR instrument. […]

[9] = system: IGF-1R; assay: IGF-1R activation in lung tissue of NNK-treated mice; type: in vivo, mouse; settings: A/J mice, NNK 3 μmol
Method: as §1

[10] = system: angiotensinogen (AGT); assay: AGT expression or secretion in lung epithelial cells; type: cell-based, human
Method: as §1

[11] = system: IGF-1R; assay: NNK-induced IGF-1R phosphorylation in IGF-1R or IR-overexpressing fibroblasts (immunoprecipitation); type: cell-based; settings: NNK 10 μM, time-dependent
Method: Proteins isolated from cells were incubated with an antibody and protein A/G agarose to isolate a protein binding to the corresponding antibody. The presence of other proteins capable of interacting with a specific protein was determined by Western blot analysis.
as §1

[12] = system: FVB mouse; assay: Emphysema-induced mouse model (NNK/B[a]P); type: in vivo; settings: FVB mice, amlodipine 0.8 mg/kg oral 6 times a week, 5 months
Method: Cells were plated onto coverslips, pretreated with a drug and then treated with NNK or NE. OCT blocks were sliced to have a thickness of 4 μm and then placed onto silane-coated slides. Cells or tissue was washed with PBS, and fixed with 4% paraformaldehyde at room temperature for 30 minutes. Afterward, the cells were permeabilized with 0.1% Triton X-100, and blocked in a blocking solution. After treatment with primary antibodies at 4° C. for over 12 hours, the cells were washed with PBS several times, and then treated with fluorescence-binding secondary antibodies. Subsequently, after washing with PBS several times, the slides were mounted with a DAPI-containing mounting solution, and images were captured using a confocal microscope.
Paraffin blocks were sliced to have a thickness of 4 μm, placed onto silane-coated slides, and then dried. […]
As a method for detecting the activation degree of a protease, a matrix metalloproteinase (MMP), known as the main factor causing COPD in lung tissue, a proper amount of a reaction buffer containing fluorescein isothiocyanate (FITC)-coupled DQ gelatin was added to a slide, and reacted at 37° C. in a dark room for 12 hours. The activated MMP decomposed the DQ gelatin, resulting in fluorescence from FITC which had been inhibited, and thus the fluorescence intensity of FITC was directly proportional to MMP activity. […]

[13] = system: IGF-1R; assay: Angiotensin-induced activation of IGF-1R signaling in BEAS-2B; type: cell-based, human; settings: angiotensin stimulation
Method: as §1

[14] = NE-treated lung epithelial cells

`NC[C@H](O)c1ccc(O)c(O)c1` [NE, norepinephrine] was tested, and the IGF2 secretion ([1]; lung epithelial cells treated with NE) was “increased”, the “transformation of lung epithelial cells (viability, colony formation, foci formation)” value [2] was “significantly enhanced” and the urethane-initiated lung carcinogenesis [3] was “significantly increased”. The IGF-1R phosphorylation ([4]; BEAS-2B, HBE/p53i, NHBE, HB56B, NE time- or concentration-dependent) was “increased”.
`CN(CCCC(=O)c1cccnc1)N=O` [NNK, 4-(methylnitrosamino)-1-(3-pyridyl)-1-butanone] was tested, and the “intracellular Ca^2+” value [5] was “increased”, the IGF2 secretion [6] was “increased” and the “activation of IGF-1R and its downstream signaling mediators Akt, mTOR, ERK” value ([7]; NHBE, SAEC, HBE/p53i, HB56B, BEAS-2B, increasing NNK time or concentration) was “increased”. For the same molecule, the “IGF-1R activation in lung cancer cells” value ([7]; various lung cancer cells with different genotypes, NNK 10 μM) was “activated”, the IGF2 generation [8] was “increased” and the “activation of IGF-1R and its downstream signaling IRS in lung tissue” value [9] was “increased”. The AGT promoter activation ([10]; NNK treatment) was “activated”, the “AGT expression and secretion” value ([10]; increase in NNK treatment time and concentration) was “increased” and the AGT expression ([10]; lung epithelial cells treated with NNK for 120 days) was “increased”. The “specificity of increase in IGF-1R phosphorylation (IGF-1R vs IR)” value [11] was “specifically shown for IGF-1R, not for IR”.
With amlodipine the “NE-mediated IGF2 secretion” value [1, 14] was “inhibited”, the “NE-mediated IGF-1R activation” value [4, 14] was “inhibited” and the “lung tissue collapse (morphology, H&E)” value [12] was “inhibited”.
For “angiotensin (DRVYIHPF; Angiotensin-2; UniProt P01019 25-32, looked up) [angiotensin used to stimulate BEAS-2B lung epithelial cells]”, the “activation of IGF-1R and downstream signaling mediators Akt and ERK” value [13] was “concentration- and time-dependently activated”.

Source: patent US11123335B2, “Method for preventing lung diseases in smokers and non-smokers using antihypertensive drug” (SEOUL NATIONAL UNIVERSITY R & DB FOUNDATION, priority 2015, dated 2021)
